The results in this text go back to ChEMBL document CHEMBL2062390, “3-Phenyl-1H-5-pyrazolylamine-based derivatives as potent and efficacious inhibitors of FMS-like tyrosine kinase-3 (FLT3)” (Bioorg Med Chem Lett, 2012).

pIC50: −log10 of the molar value. Active and inactive are the calls of the source. No cut-off for these calls is given here. Some results are limits rather than exact numbers.

Data set [1] in a line: AUC in Sprague-Dawley rat at 2 mg/kg, iv. The format is ADME, organism-based. Further details: dose 2 mg/kg, route intravenous. Conditions: plasma.
A short description of data set [2]: Oral bioavailability in Sprague-Dawley rat. It is filed as ADME, organism-based. The settings on record: in vivo.
Data set [3] has as its target Vascular endothelial growth factor receptor 1 (Homo sapiens, UniProt P17948).
The nature of data set [4]: AUC (0 to 4 hrs) in rat at 2 mg/kg, iv. It is filed as ADME, organism-based. The arrangement: time < 4 hr, dose 2 mg/kg, route intravenous. The settings on record: plasma.
For data set [5], the target named is T1, Aurora kinase A (Homo sapiens, UniProt O14965).
T1 sequence (O14965 whole entry): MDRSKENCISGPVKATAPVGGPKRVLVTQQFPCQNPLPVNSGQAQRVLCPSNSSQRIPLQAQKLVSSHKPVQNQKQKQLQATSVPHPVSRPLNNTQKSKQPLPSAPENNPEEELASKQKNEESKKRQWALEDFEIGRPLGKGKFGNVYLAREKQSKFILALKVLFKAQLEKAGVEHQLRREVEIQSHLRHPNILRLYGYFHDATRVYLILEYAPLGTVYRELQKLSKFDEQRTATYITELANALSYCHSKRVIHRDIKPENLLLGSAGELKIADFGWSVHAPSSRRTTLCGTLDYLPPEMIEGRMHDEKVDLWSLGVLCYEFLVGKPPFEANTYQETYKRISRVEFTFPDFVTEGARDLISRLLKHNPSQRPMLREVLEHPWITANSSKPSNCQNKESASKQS

Data set [6] deals with Mus musculus. The data set is described as follows: Toxicity in athymic nude NU-Fox1 mouse xenografted with human MOLM-13 cells assessed as body weight loss at 25 mg/kg, iv administered QD on days 1 to 5 and 8 to 12 measured up to 30 days. The format is organism-based. Further details: dose 25 mg/kg, route intravenous. Conditions: in vivo, 720 h.
The nature of data set [7]: Volume of distribution in Sprague-Dawley rat at 2 mg/kg, iv. The format is ADME, organism-based. Further details: dose 2 mg/kg, route intravenous. The settings on record: in vivo.
For data set [8], the target named is Vascular endothelial growth factor receptor 2 (Homo sapiens, UniProt P35968).
Data set [9] has as its target T2, Receptor-type tyrosine-protein kinase FLT3 (Homo sapiens, UniProt P36888).
T2 sequence (P36888 whole entry): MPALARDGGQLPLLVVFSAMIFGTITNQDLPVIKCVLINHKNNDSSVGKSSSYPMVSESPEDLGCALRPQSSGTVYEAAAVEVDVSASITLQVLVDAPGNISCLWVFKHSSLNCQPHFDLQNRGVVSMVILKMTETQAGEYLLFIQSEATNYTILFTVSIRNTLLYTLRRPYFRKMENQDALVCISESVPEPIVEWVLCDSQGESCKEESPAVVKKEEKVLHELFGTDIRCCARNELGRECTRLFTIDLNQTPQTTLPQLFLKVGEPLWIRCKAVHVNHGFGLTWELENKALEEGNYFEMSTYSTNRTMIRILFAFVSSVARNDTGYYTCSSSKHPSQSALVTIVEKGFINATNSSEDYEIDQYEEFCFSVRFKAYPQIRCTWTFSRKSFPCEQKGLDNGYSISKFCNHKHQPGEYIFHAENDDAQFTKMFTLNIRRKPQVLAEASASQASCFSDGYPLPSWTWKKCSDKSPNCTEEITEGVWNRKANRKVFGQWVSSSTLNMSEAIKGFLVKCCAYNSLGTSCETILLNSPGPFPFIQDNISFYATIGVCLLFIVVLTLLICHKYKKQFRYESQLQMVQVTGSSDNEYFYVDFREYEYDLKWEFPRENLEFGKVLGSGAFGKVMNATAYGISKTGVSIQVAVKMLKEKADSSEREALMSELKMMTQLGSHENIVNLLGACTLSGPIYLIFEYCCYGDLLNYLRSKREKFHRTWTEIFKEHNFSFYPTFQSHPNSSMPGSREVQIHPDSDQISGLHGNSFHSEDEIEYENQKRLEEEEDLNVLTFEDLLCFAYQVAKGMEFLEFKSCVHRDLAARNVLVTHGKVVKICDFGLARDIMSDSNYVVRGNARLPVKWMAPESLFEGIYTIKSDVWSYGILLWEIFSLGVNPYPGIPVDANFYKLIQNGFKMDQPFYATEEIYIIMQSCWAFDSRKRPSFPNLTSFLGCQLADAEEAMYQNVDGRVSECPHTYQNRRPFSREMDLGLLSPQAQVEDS
Description: Inhibition of wild type FLT3

Data set [10] in a line: Half life in Sprague-Dawley rat plasma at 2 mg/kg, iv. The format is ADME, organism-based. The arrangement: dose 2 mg/kg, route intravenous.
Data set [11] concerns MOLM-13. Put plainly: Antitumor activity against human MOLM13 cells expressing FLT3-ITD mutant xenografted in athymic nude NU-Fox1 mouse assessed as tumor regression at 25 mg/kg, iv administered QD on days 1 to 5 and 8 to 12 measured up to 30 days. The format is functional, organism-based. The arrangement: dose 25 mg/kg.
Data set [12] has as its system MOLM-13. The data set is described as follows: cells. The settings on record: Homo sapiens.
Description: Antiproliferative activity against human MOLM13 cells expressing FLT3-ITD mutant
The subject of data set [13] is MV4-11. Put plainly: Antiproliferative activity against human MV4-11 cells expressing FLT3-ITD mutant. It is filed as functional.
Data set [14] in a line: Cmax in Sprague-Dawley rat at 2 mg/kg, iv at 5 mins. Further details: dose 2 mg/kg, route intravenous. The format is ADME, organism-based. The settings on record: in vivo.
The target of data set [15] is Receptor-type tyrosine-protein kinase FLT3 (Homo sapiens) (UniProt P36888). Put plainly: (§1) Inhibition of FLT3 autophosphorylation in human MV4-11 cells after 2 hrs by Western blot analysis. The format is cell-based. In general terms: Immunoblotting shows a protein as a band on a membrane.
Data set [16] has as its target T2, Receptor-type tyrosine-protein kinase FLT3. Described as §1. It is filed as cell-based.
Data set [17] relates to MOLM-13. The data set is described as follows: Antitumor activity against human MOLM13 cells expressing FLT3-ITD mutant xenografted in athymic nude NU-Fox1 mouse assessed as tumor regression at 25 mg/kg, iv administered as single dose. It is filed as functional, organism-based. Further details: dose 25 mg/kg. (A xenograft is tissue or cells of one species grown in another, often human tumour cells in immunodeficient mice.)

Data set [18] in a line: Plasma clearance in Sprague-Dawley rat at 2 mg/kg, iv. Further details: dose 2 mg/kg, route intravenous. The format is ADME, organism-based.
Data set [19] is described as follows: Plasma concentration in Sprague-Dawley rat at 2 mg/kg, iv at 24 hrs. The format is ADME, organism-based. Further details: dose 2 mg/kg, route intravenous.

Sequence of Vascular endothelial growth factor receptor 1 (P17948 whole entry): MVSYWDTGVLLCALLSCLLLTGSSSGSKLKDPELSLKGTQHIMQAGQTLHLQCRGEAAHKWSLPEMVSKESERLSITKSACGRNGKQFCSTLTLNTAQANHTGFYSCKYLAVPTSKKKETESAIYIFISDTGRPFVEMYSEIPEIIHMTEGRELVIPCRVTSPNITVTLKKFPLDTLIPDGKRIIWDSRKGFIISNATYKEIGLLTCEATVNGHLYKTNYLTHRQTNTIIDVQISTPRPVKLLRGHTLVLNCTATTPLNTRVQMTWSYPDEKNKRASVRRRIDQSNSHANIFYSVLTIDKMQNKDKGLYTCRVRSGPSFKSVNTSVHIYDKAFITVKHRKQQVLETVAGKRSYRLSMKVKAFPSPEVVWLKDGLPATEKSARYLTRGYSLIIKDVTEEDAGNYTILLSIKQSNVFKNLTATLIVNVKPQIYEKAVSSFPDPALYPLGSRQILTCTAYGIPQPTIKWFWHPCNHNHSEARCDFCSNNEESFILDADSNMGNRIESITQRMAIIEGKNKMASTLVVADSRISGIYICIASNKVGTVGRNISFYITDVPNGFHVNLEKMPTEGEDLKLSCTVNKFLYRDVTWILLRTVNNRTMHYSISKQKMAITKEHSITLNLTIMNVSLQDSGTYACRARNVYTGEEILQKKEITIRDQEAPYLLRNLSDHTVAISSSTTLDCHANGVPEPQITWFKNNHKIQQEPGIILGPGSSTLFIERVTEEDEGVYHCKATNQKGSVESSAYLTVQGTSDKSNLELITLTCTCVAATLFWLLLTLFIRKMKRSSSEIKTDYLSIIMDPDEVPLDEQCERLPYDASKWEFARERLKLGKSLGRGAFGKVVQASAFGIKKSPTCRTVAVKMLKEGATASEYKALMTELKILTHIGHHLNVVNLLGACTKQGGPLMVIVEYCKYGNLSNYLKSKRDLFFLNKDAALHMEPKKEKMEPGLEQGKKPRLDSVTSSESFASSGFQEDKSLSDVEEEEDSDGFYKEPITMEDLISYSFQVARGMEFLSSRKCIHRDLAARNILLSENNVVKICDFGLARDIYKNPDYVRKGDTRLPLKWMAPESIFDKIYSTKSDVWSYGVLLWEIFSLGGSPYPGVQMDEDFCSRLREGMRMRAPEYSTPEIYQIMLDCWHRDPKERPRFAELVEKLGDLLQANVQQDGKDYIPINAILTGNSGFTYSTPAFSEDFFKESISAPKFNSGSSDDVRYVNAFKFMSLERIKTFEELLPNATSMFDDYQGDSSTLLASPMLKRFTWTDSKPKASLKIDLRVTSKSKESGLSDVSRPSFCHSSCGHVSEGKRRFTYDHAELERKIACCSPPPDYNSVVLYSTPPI
Sequence of Vascular endothelial growth factor receptor 2 (P35968 whole entry): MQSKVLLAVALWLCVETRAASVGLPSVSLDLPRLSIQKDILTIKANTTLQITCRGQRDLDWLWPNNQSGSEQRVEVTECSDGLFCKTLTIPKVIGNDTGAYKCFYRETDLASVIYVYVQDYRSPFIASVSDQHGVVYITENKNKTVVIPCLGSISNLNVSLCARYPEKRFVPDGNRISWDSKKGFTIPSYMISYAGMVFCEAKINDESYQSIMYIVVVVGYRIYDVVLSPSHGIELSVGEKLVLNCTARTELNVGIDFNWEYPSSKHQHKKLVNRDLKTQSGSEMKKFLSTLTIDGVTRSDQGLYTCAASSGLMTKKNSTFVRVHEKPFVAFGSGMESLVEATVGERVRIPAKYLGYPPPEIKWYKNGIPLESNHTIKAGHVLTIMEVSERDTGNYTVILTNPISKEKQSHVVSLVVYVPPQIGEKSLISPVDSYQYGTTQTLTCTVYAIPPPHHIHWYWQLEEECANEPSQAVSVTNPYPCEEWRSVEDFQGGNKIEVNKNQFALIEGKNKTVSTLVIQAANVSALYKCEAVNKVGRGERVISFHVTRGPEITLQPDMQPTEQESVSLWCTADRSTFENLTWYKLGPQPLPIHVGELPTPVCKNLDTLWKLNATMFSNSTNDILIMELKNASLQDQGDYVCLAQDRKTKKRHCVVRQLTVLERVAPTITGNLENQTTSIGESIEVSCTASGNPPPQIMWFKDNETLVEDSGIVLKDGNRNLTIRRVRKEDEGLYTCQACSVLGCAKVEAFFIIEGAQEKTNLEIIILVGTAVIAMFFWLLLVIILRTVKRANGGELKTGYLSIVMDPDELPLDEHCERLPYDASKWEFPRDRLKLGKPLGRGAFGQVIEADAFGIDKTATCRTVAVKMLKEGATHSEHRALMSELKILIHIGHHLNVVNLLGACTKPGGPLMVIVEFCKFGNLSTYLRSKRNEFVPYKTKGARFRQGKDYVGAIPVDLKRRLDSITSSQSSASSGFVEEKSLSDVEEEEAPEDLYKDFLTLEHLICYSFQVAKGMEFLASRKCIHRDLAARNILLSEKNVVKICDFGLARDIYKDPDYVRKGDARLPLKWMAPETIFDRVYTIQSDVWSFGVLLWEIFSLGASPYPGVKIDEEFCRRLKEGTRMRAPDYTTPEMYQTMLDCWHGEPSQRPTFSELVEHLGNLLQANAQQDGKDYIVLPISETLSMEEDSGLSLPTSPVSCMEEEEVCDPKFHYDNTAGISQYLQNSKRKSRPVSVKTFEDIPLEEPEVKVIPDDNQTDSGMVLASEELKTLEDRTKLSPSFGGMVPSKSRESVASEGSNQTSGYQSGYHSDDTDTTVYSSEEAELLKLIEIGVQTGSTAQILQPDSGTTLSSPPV

As for `O=C(NCc1ccc(-c2cc(NC(=O)c3ccc(OCCN4CCCC4)cc3)[nH]n2)cc1)OCc1ccccc1`, the area under the curve (AUC) in [1] stood at 5.79 µM·h. The same molecule returned a bioavailability in [2] of 5%. Moreover, the negative-log IC50 (pIC50) in data set [3] is 7.15; in [5], < 6.00; in data set [8] it was 6.92; in data set [9], 8.00; in data set [16], 9.00. In addition, the exposure AUC(0-t) at 4 h in data set [4] came to 1380 ng·h/mL. For the same molecule, the Activity result in [6] was “Non-toxic”. Moreover, the distribution volume (Vd) in data set [7] was determined as 6 L/kg. Moreover, in data set [10], the half-life is 6.2 h. In addition, the outcome in data set [11] and in [17] was Active. Also, the 50% growth inhibitory concentration (GI50) was 2 nM in data set [12] and 3 nM in data set [13]. In addition, the Cmax in data set [14] came out at 5430 nM. For the same molecule, in [15], the inhibition result is “Dose-dependent effect”. In addition, in data set [18], the clearance amounted to 16.2 mL/min/kg. The concentration at 24 h in data set [19] was found to be 17 nM.

By AUC is commonly meant concentration integrated over time. What is called bioavailability is dose-corrected exposure relative to a reference, in per cent. The low end stands for little systemic uptake, the high end for much systemic uptake. For orientation: pIC50 means the IC50 on a negative log10 scale, so that one unit is a factor of ten. Read a low pIC50 as a large IC50. Usually AUC(0-t) stands for exposure summed from dosing to a finite time, without extrapolation to infinity. One may read the Vd as the apparent volume that relates the amount in the body to the concentration in plasma or blood. What is called half-life is the time in which the quantity being followed falls by half. What is called GI50 is the concentration giving 50% growth inhibition. A lower GI50 goes with more potent growth inhibition. The term Cmax denotes the maximum level reached in the sampled fluid or tissue. What is called clearance is a measure of how efficiently the substance is removed, as volume per time.
